Results reported in patent US10329262B2, “Quinazolinone antibiotics” (priority 2013, dated 2019).
Converted amounts (≈) assume the structure as drawn. Where two headings read alike, the source gives them in different places.

Columns and labels:
[1] = test system: S. aureus ATCC 29213 (MSSA); assay: MIC, CLSI broth microdilution, S. aureus ATCC 29213; assay type: cell-based, Staphylococcus aureus; settings: for MIC (w/ BSA): S. aureus ATCC 29213, in the presence of bovine serum albumin; for MIC: S. aureus strain ATCC 29213 (MSSA); for In vitro AB activity (MIC): Table 2.1, S. aureus ATCC 29213
Procedure: (§1) MICs were evaluated following the CLSI microdilution method in BBL™ Mueller-Hinton II broth (Wikler et al., Clinical Laboratory Standards Institute Document M7-A7, 29 (2009)). Briefly, two-fold serial dilutions of compound were prepared in triplicate in 96-well plates and inoculated with 5×10^5 cfu/mL of the bacterial suspension. Plates were incubated at 37° C. for 16-20 hours.

[2] = test system: MRSA ATCC 27660; assay: Mouse peritonitis model of MRSA infection; assay type: in vivo, mice; settings: n = 6, 48 h
Procedure: We evaluated several compounds in in vivo mouse infection models, as well as in pharmacokinetic (PK) studies in mice (Table 1). The in vivo efficacy was determined using the rapid mouse peritonitis model of infection, in which the end point is death or survival in 48 hours. We initially dosed the compounds intravenously (iv) at a single dose level. If the compound has good in vivo efficacy after iv administration, we then evaluated efficacy at five dose levels. We also investigated in vivo efficacy after oral (po) administration.
Groups (n=6/group) of mice were infected with MRSA (0.5 mL of ATCC 27660 at a final concentration of 5×10^7 CFU/mL in 5% porcine mucin) intraperitoneally (ip). Following infection, mice were given iv doses by tail vein injection of compound 2, vancomycin (5 mg/kg, positive control), or vehicle at 30 min and 4.5 h after infection. The number of surviving mice was monitored for 48 h. The negative control (vehicle) typically results in the death of all mice. Quinazolinone 2 was dissolved in saline, sterile-filtered, and administered at doses of 2.5, 5, 7.5, 10, 20, and 30 mg/kg. The ED50 value was calculated using GraphPad prism 5.

[3] = Pharmacokinetics in mice; settings: Table 1, ICR female mice, single dose iv
Procedure: We conducted first fast PK studies (n=2 mice per time point, 5 time points) dosing the compounds iv, followed by full PK studies for selected compounds (n=3 mice per time point, 10-12 time points per route of administration, iv and po).
A single dose of compound 2 was administered to mice (n=3 per time point) by tail vein injection or by oral gavage at 10 mg/kg. Blood was collected by cardiac puncture in heparinized syringes at 2, 5, 20, and 40 min and at 1, 2, 3, 4, 8, 18, and 24 h after iv dosing and at 0.5, 1, 2, 3, 4, 6, 9, 24, and 30 h after po dosing. Blood was centrifuged to obtain plasma. A 50-μL aliquot of plasma was mixed with 100 μL of acetonitrile containing internal standard (5 μM final concentration), followed by centrifugation at 20,000 g for 15 min. The supernatant was analyzed by reverse-phase UPLC. PK parameters were calculated as described in the Plasma protein binding and Pharmacokinetics sections below (see also Gooyit et al. J. Med. Chem. 54, 6676-6690 (2011)).
The area under the concentration-time curve up to the last quantifiable sampling time (AUC0-last) was calculated by the trapezoidal rule. AUC0-∞ was calculated as AUC0-last+(Clast/k), where Clast is the concentration at the last quantifiable sampling time and k is the elimination rate constant. The concentration at time=0 (C0) was estimated from the first sampling times by back-extrapolation using log-linear regression analysis. Half-lives (t1/2α and t1/2β) were estimated from the linear portion of the initial or terminal concentration-time data by linear regression, where the slope of the line was the rate constant k and t1/2α=ln 2/k. Volume of distribution (Vd) was calculated as the dose divided by the initial concentration (C0). Clearance (CL) was calculated from the dose divided by AUC0-∞. Oral bioavailability (F) was calculated by dividing the AUCpo by the AUCiv, as equivalent iv and po doses were administered.

[4] = test system: S. aureus NRS70; assay: MIC, broth microdilution, S. aureus NRS70; assay type: cell-based, Staphylococcus aureus; settings: for MIC: Staphylococcus aureus; for In vitro AB activity (MIC): Table 2.1, S. aureus NRS70
Procedure: as §1

[5] = test system: S. aureus NRS123; assay: MIC, broth microdilution, S. aureus NRS123; assay type: cell-based; settings: Staphylococcus aureus
Procedure: as §1

[6] = test system: S. aureus NRS128; assay: MIC, CLSI broth microdilution, S. aureus NRS128; assay type: cell-based, Staphylococcus aureus; settings: Table 2.1, S. aureus NRS128
Procedure: as §1

[7] = test system: S. aureus NRS100; assay: MIC, CLSI broth microdilution, S. aureus NRS100; assay type: cell-based, Staphylococcus aureus; settings: for MIC: Table 2, S. aureus NRS100; for In vitro AB activity (MIC): Table 2.1, S. aureus NRS100
Procedure: as §1

[8] = test system: S. aureus NRS119; assay: MIC, CLSI broth microdilution, S. aureus NRS119; assay type: cell-based, Staphylococcus aureus; settings: for MIC: Table 2, S. aureus NRS119; for In vitro AB activity (MIC): Table 2.1, S. aureus NRS119
Procedure: as §1

[9] = test system: S. aureus NRS120; assay: MIC, CLSI broth microdilution, S. aureus NRS120; assay type: cell-based, Staphylococcus aureus; settings: for MIC: Table 2, S. aureus NRS120; for In vitro AB activity (MIC): Table 2.1, S. aureus NRS120
Procedure: as §1

[10] = test system: S. aureus VRS1; assay: MIC, CLSI broth microdilution, S. aureus VRS1; assay type: cell-based, Staphylococcus aureus; settings: for MIC: Table 2, S. aureus VRS1; for In vitro AB activity (MIC): Table 2.1, S. aureus VRS1
Procedure: as §1

[11] = test system: S. aureus VRS2; assay: MIC, CLSI broth microdilution, S. aureus VRS2; assay type: cell-based, Staphylococcus aureus; settings: for MIC: Table 2, S. aureus VRS2; for In vitro AB activity (MIC): Table 2.1, S. aureus VRS2
Procedure: as §1

[12] = test system: S. epidermidis ATCC 35547; assay: MIC, CLSI broth microdilution, S. epidermidis ATCC 35547; assay type: cell-based; settings: for MIC: Table 2, S. epidermidis ATCC 35547
Procedure: as §1

[13] = test system: S. haemolyticus ATCC 29970; assay: MIC, CLSI broth microdilution, S. haemolyticus ATCC 29970; assay type: cell-based; settings: for MIC: Table 2, S. haemolyticus ATCC 29970; for In vitro AB activity (MIC): Table 2.1, S. haemolyticus ATCC 29970
Procedure: as §1

[14] = 5 mg/kg iv at 30 min and 4.5 hr after infection
[15] = 10 mg/kg iv at 30 min and 4.5 hr after infection
[16] = NRS70, Table 3, single agent, read-out: MIC NRS70
[17] = NRS123, Table 3, single agent, read-out: MIC NRS123
[18] = Table 2, S. aureus NRS70, read-out: MIC
[19] = Table 2, S. aureus NRS123, read-out: MIC
[20] = Staphylococcus aureus, read-out: MIC
[21] = Staphylococcus haemolyticus, ATCC29970, read-out: MIC

In the case of `Cc1nc2ccccc2c(=O)o1` [Compound 3], the “MIC (w/ BSA)” value [1] is reported as 4 µg/mL, the MIC [1] is reported as 0.25 µg/mL (≈ 1.55 µM) and the “In Vivo Efficacy (survived/total mice)” value [2, 14] is reported as 1/6 @ 5 mg/kg. For the same compound, the “AUC (iv)” value [3] was “AUC = 466 μg.min/mL”, the CL [3] was “CL = 10.7 mL/min/kg” and the Vd [3] was “Vd = 8.9 mL”.
With `CS(=O)(=O)Nc1cccc(-n2c(/C=C/c3ccc(F)cc3)nc3ccccc3c2=O)c1` [Compound 6] the “MIC (w/ BSA)” value [1] was 1 µg/mL, the MIC [1] was 0.125 µg/mL (≈ 0.287 µM) and the “In Vivo Efficacy (survived/total mice)” value [2, 15] was 0/6 @ 10 mg/kg. The “AUC (iv)” value [3] was “AUC = 819 μg.min/mL”, the CL [3] was “CL = 28.0 mL/min/kg” and the Vd [3] was “Vd = 91.8 mL”.
`CO/N=C(\C(=O)N[C@@H]1C(=O)N2C(C(=O)[O-])=C(C[N+]3(C)CCCC3)CS[C@H]12)c1csc(N)n1` [cefepime] showed an MIC [4, 16] of 64 µg/mL (≈ 133 µM) and an MIC [5, 17] of 32 µg/mL (≈ 66.6 µM).
`CC(=O)NC[C@H]1CN(c2ccc(N3CCOCC3)c(F)c2)C(=O)O1` [linezolid] gave an In vitro AB activity (MIC) [1] of 4 µg/mL, an In vitro AB activity (MIC) [6] of 1 µg/mL and an MIC [4, 18] of 1 µg/mL (≈ 2.96 µM). The In vitro AB activity (MIC) [4] was 1 µg/mL, the MIC [5, 19] was 2 µg/mL (≈ 5.93 µM) and the MIC [7, 20] was 2 µg/mL (≈ 5.93 µM). The In vitro AB activity (MIC) [7] was 2 µg/mL, the MIC [8, 20] was 64 µg/mL (≈ 190 µM) and the In vitro AB activity (MIC) [8] was 32 µg/mL. For the same compound, the MIC [9, 20] was 64 µg/mL (≈ 190 µM), the In vitro AB activity (MIC) [9] was 32 µg/mL and the MIC [10, 20] was 2 µg/mL (≈ 5.93 µM). The In vitro AB activity (MIC) [10] was 2 µg/mL, the MIC [11, 20] was 1 µg/mL (≈ 2.96 µM) and the In vitro AB activity (MIC) [11] was 2 µg/mL. For the same compound, the MIC ([12]; Staphylococcus epidermidis, ATCC35547, read-out: MIC) was 1 µg/mL (≈ 2.96 µM), the In vitro AB activity (MIC) ([12]; Table 2.1, S. epidermidis ATCC 35547) was 1 µg/mL and the MIC [13, 21] was 1 µg/mL (≈ 2.96 µM). For the same compound, the In vitro AB activity (MIC) [13] was 2 µg/mL.
For `Cc1onc(-c2ccccc2)c1C(=O)N[C@@H]1C(=O)N2[C@@H]1SC(C)(C)[C@@H]2C(=O)O` [oxacillin], the In vitro AB activity (MIC) [1] was 0.25 µg/mL, the In vitro AB activity (MIC) [6] was 0.5 µg/mL and the MIC [4, 16] was 64 µg/mL (≈ 159 µM). For the same compound, the MIC [4, 18] was 32 µg/mL (≈ 79.7 µM), the In vitro AB activity (MIC) [4] was 32 µg/mL and the MIC [5, 17] was 32 µg/mL (≈ 79.7 µM). The MIC [5, 19] was 32 µg/mL (≈ 79.7 µM), the MIC [7, 20] was 512 µg/mL (≈ 1280 µM) and the In vitro AB activity (MIC) [7] was 512 µg/mL. The MIC [8, 20] was 512 µg/mL (≈ 1280 µM), the In vitro AB activity (MIC) [8] was 512 µg/mL and the MIC [9, 20] was 512 µg/mL (≈ 1280 µM). For the same compound, the In vitro AB activity (MIC) [9] was 512 µg/mL, the MIC [10, 20] was 512 µg/mL (≈ 1280 µM) and the In vitro AB activity (MIC) [10] was 512 µg/mL. For the same compound, the MIC [11, 20] was 256 µg/mL (≈ 638 µM), the In vitro AB activity (MIC) [11] was 256 µg/mL and the MIC [13, 21] was 0.25 µg/mL (≈ 0.623 µM). The In vitro AB activity (MIC) [13] was 0.25 µg/mL.
For `CC(=O)Nc1cccc(-n2c(/C=C/c3ccc(F)cc3)nc3ccccc3c2=O)c1` [Compound 5], the “MIC (w/ BSA)” value [1] was 8 µg/mL, the MIC [1] was 1 µg/mL (≈ 2.5 µM) and the “In Vivo Efficacy (survived/total mice)” value [2, 15] was 2/6 @ 10 mg/kg. For the same compound, the “AUC (iv)” value [3] was “AUC = 284 μg.min/mL”, the CL [3] was “CL = 88.2 mL/min/kg” and the Vd [3] was “Vd = 55.0 mL”.
With `CC(=O)Nc1cccc(-n2c(/C=C/c3ccc(C#N)cc3)nc3ccccc3c2=O)c1` [Compound 8] the “MIC (w/ BSA)” value [1] was 2 µg/mL, the MIC [1] was 0.25 µg/mL (≈ 0.615 µM) and the MIC [7] was 1 µg/mL (≈ 2.46 µM). The MIC [8] was 0.25 µg/mL (≈ 0.615 µM), the MIC [9] was 0.25 µg/mL (≈ 0.615 µM) and the MIC [10] was 4 µg/mL (≈ 9.84 µM). The MIC [11] was 0.125 µg/mL (≈ 0.308 µM), the MIC [12] was 0.06 µg/mL (≈ 0.148 µM) and the MIC [13] was 0.25 µg/mL (≈ 0.615 µM). The “In Vivo Efficacy (survived/total mice)” value [2, 14] was 1/6 @ 5 mg/kg, the “AUC (iv)” value [3] was “AUC = 1187 μg.min/mL” and the CL [3] was “CL = 131 mL/min/kg”. For the same compound, the Vd [3] was “Vd = 107 mL”.
